Test: Cyclic voltammetry in CH2Cl2/[N^nBu4]PF6
Assay type: physicochemical
Settings: CH2Cl2/[N^nBu4]PF6 0.2 M
Description: Cyclic voltammetry measurements were conducted by using a PalmSens4 instrument connected to a computer operating with the PSTrace5 electrochemical software. Prior to use, anhydrous CH2Cl2 (Merck) was stored under argon over 3 Å molecular sieves. Both [N^nBu4]PF6 (electrochemical grade) and FeCp2, obtained from Fluka, were utilized without requiring additional purification. Cyclic voltammetries were carried out under argon by utilizing a 0.2 M solution of [N^nBu4]PF6 in CH2Cl2 as the supporting electrolyte. The working electrode and the counter electrode were comprised of a platinum disk and a platinum gauze, respectively, both enclosed within a glass tube. A leakage-free miniature electrode of Ag/AgCl/KCl (from eDAQ) was employed as a reference. The three-electrode designed cell was subjected to predrying via vacuum heating and then filled with argon gas. The Schlenk-type design of the cell was effective in upholding both anhydrous and anaerobic conditions. Subsequently, a solution of supporting electrolyte, prepared under argon, was introduced into the cell, and the CV of the solvent was acquired. Afterward, the analyte was introduced, and voltammograms were recorded. Under the selected experimental conditions, the one-electron oxidation of ferrocene occurred at a standard potential of E° = +0.45 V relative to Ag/AgCl/KCl.

[1] = vs Ag/AgCl/KCl, peak potential of irreversible process

In the case of `F[B-](F)(F)F.O=[C]=[Ru+]1([CH]2C=CC=C2)[C](=O)[Ru]1(=[C]=O)([CH]=C=C1CCCC1)[CH]1C=CC=C1` (stereo not shown) [3a, [Ru2Cp2(CO)3{μ–η^1:η^2-CH=C=(cyclopentylidene)}]BF4], the “Formal electrode potential, oxidation” value [1] is reported as “+1.61 V”, the “Formal electrode potential, reduction” value [1] is reported as “–1.00 V” and the “Formal electrode potential, oxidation” value (vs FeCp2 (in parentheses)) is reported as “+1.15 V”. For the same molecule, the “Formal electrode potential, reduction” value (vs FeCp2 (in parentheses)) was −1.46 V.
